# Test results as given in BindingDB's records for doi:10.7270/Q2N301S8 (D3R/Abbott, 2020).
# pIC50: −log10 of the molar value.
# Target: Beta-secretase 1 (Homo sapiens, UniProt P56817)
# Assay: D3R2027
# Excerpt: D3R2027
# Beta-secretase 1, sequence (P56817 whole entry): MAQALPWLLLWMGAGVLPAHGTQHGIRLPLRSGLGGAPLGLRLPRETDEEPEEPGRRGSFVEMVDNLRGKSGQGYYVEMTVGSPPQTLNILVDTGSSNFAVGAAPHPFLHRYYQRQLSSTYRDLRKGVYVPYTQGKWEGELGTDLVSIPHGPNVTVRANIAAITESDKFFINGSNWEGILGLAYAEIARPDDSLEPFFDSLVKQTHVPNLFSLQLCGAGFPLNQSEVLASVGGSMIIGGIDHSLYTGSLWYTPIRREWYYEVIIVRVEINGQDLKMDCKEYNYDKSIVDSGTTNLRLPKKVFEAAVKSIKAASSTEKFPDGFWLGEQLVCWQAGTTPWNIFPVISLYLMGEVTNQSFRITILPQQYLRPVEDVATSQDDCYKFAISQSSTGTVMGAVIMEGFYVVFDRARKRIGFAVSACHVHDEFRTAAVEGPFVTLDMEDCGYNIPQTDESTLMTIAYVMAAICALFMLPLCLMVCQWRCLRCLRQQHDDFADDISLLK
row,pIC50,Structure (SMILES)
1,6.25,CCCCNC(=O)[C@H](C)C[C@H](O)[C@@H]1C[C@H](C)CCCCCCCCS(=O)(=O)C[C@@H](C)C(=O)N1 [BACE_151]
2,5.54,CC(C)c1cccc(C(C)(C)NC[C@@H](O)[C@@H]2C[C@H](C)CCCCCCCNc3cccc(n3)C(=O)N2)c1 [BACE_70]
3,6.16,CCCCNC(=O)[C@H](C)C[C@H](O)[C@@H]1Cc2cccc(c2)OCCCCCC(=O)N[C@@H](C)C(=O)N1 [BACE_153]
4,7.17,CC(C)c1cccc(CNC[C@@H](O)[C@@H]2C[C@H](C)CCCCCCCOc3cc(cc(-c4ncco4)c3)C(=O)N2)c1 [BACE_80]
5,6.44,CC(C)c1cccc(CNC[C@@H](O)[C@@H]2C[C@H](C)CCCCCCCCC(=O)N(C)CC(=O)N2)c1 [BACE_32]
6,7.03,COCc1cc2cc(c1)C(=O)N[C@H]([C@H](O)CNCc1cccc(C(C)C)c1)C[C@H](C)CCCCCCCN2 [BACE_9]
7,4.21,C[C@@H]1CCCCCCCCC(=O)N(C)[C@@H](C)C(=O)N[C@H]([C@H](O)CO)C1 [BACE_143]
8,7.05,COc1cc2cc(n1)N(C)CCCCc1cccc(c1)C[C@@H]([C@H](O)CNCc1cccc(C(C)C)c1)NC2=O [BACE_99]
9,6.02,COc1ccc2cc1OCCCCNc1cc(CO)cc(c1)C(=O)N[C@H]([C@H](O)CNCc1cccc(C(C)C)c1)C2 [BACE_130]
10,6.00,CC(C)c1cccc(CNC[C@@H](O)[C@@H]2Cc3cccc(c3)CCCCN(C)c3cccc(c3)C(=O)N2)c1 [BACE_118]
11,8.70,CC(=O)COc1cc2cc(c1)C(=O)N[C@H]([C@H](O)CNC1(c3cc(C(C)(C)C)ccn3)CC1)Cc1cccc(c1)CCCCO2 [BACE_133]
12,7.62,C[C@@H]1CCCCCCCCS(=O)(=O)C[C@@H](C)C(=O)N[C@H]([C@H](O)CNC2(c3cccc(C(C)(C)C)c3)CC2)C1 [BACE_38]
13,7.64,C[C@@H]1CCCCCCCNc2cccc(c2)C(=O)N[C@H]([C@H](O)CNC(C)(C)c2cc(CC(C)(C)C)on2)C1 [BACE_57]
14,6.59,CC(C)Cc1cncc(C(C)(C)NC[C@@H](O)[C@@H]2Cc3cccc(c3)OCCCCNc3cccc(c3)C(=O)N2)c1 [BACE_123]
15,7.28,CCOc1ccc(C(F)(F)F)c(CNC[C@@H](O)[C@@H]2C[C@H](C)CCCCCCCCC(=O)N(C)[C@@H](C)C(=O)N2)c1 [BACE_24]
16,5.82,CC(C)Oc1ccc(C2CC2)cc1CNC[C@@H](O)[C@@H]1C[C@H](C)CCCCCCOCC(=O)N(C)[C@@H](C)C(=O)N1 [BACE_36]
17,5.51,CCCNc1cc(COC)cc(C(=O)N[C@@H](Cc2cccc(OC)c2)[C@H](O)CNCc2cccc(C(C)C)c2)c1 [BACE_146]
18,7.54,Cc1cc2cc(n1)NCCCCCCC[C@@H](C)C[C@@H]([C@H](O)CNCc1cccc(C(C)C)c1)NC2=O [BACE_41]
19,7.39,CN(C)C(=O)c1cc2cc(c1)C(=O)N[C@H]([C@H](O)CNC1(c3cccc(C(C)(C)C)c3)CC1)Cc1ccc(F)c(c1)OC/C=C\CN2 [BACE_131]
20,8.00,CC(=O)COc1cc2cc(c1)C(=O)N[C@H]([C@H](O)CNCc1cc(C(C)(C)C)ccn1)Cc1cccc(c1)CCCCO2 [BACE_135]
21,6.64,C[C@@H]1CCCCCCCCC(=O)N(C)[C@@H](C)C(=O)N[C@H]([C@H](O)CNC(C)(C)c2cccc(Br)c2)C1 [BACE_28]
22,6.77,C[C@@H]1CCCCCCCNc2cccc(c2)C(=O)N[C@H]([C@H](O)CNC2(c3cccc(C(C)(C)C)c3)COC2)C1 [BACE_56]

row,pIC50,Structure (SMILES)
1,7.48,COCc1cc2cc(c1)C(=O)N[C@H]([C@H](O)CNC1(c3cccc(C(C)(C)C)c3)COC1)C[C@H](C)CCCCCCCN2 [BACE_60]
2,5.92,CCCNc1cc(COC)cc(C(=O)N[C@@H](Cc2cccc(OC)c2)[C@H](O)CNC2(c3cccc(C(C)C)c3)CC2)c1 [BACE_145]
3,6.13,CC(C)c1cccc(CNC[C@@H](O)[C@@H]2C[C@H](C)CCCCCCCN(C)c3cc(ccn3)C(=O)N2)c1 [BACE_42]
4,6.24,CCCc1cc(CNC[C@@H](O)[C@@H]2C[C@H](C)CCCCCCCNc3cc(COC)cc(c3)C(=O)N2)no1 [BACE_64]
5,5.77,COCc1cc2cc(c1)C(=O)N[C@H]([C@H](O)CNCCc1ccncc1)C[C@H](C)CCCCCCCN2 [BACE_65]
6,7.51,C[C@@H]1CCCCCCCOc2cc(ccn2)C(=O)N[C@H]([C@H](O)CNC(C)(C)c2cc(CC(C)(C)C)on2)C1 [BACE_84]
7,7.16,C[C@@H]1CC(=O)NCCCCOc2cccc(c2)C[C@@H]([C@H](O)CNCc2cccc(C(C)(C)C)c2)NC1=O [BACE_92]
8,7.49,CC(C)c1cccc(CNC[C@@H](O)[C@@H]2Cc3cccc(c3)OCCCCCC(=O)N(C)[C@@H](C)C(=O)N2)c1 [BACE_11]
9,7.68,CCN1CCCCC[C@@H](C)C[C@@H]([C@H](O)CNCc2cccc(C(C)C)c2)NC(=O)c2cccc(c2)C1=O [BACE_6]
10,5.26,CC(=O)N1CCCCOc2cccc(c2)C[C@@H]([C@H](O)CNCc2cc(C(C)C)ccn2)NC(=O)c2cc(C)nc1c2 [BACE_101]
11,7.54,CC(C)c1cccc(CNC[C@@H](O)[C@@H]2C[C@H](C)CCCCCCCOc3cc(cc(Cl)n3)C(=O)N2)c1 [BACE_51]
12,7.10,COCc1cc2cc(c1)C(=O)N[C@H]([C@H](O)CNC1(c3cccc(C(C)C)c3)CC1)C/C(C)=C/COCCCCN2 [BACE_77]
13,6.68,C[C@@H]1CC/C=C/CCCNc2cc(CO)cc(c2)C(=O)N[C@H]([C@H](O)CNCc2cc(CC(C)(C)C)on2)C1 [BACE_67]
14,5.68,Cc1cc2cc(n1)N(C)CCCCCC[C@@H](C)C[C@@H]([C@H](O)CNCc1cccc(C(C)C)c1)NC2=O [BACE_44]
15,7.33,Cc1cc2cc(n1)OCCCCc1cc(cc(Cl)c1O)C[C@@H]([C@H](O)CNC(C)(C)c1cccc(C(C)C)c1)NC2=O [BACE_107]
16,9.00,C[C@@H]1CCCCCCCCC(=O)N(C)[C@@H](C)C(=O)N[C@H]([C@H](O)CN[C@@H](C)c2cc(CC(C)(C)C)on2)C1 [BACE_30]
17,5.82,CC(C)c1cccc(CNC[C@@H](O)[C@@H]2C[C@H](C)CCCCCCCCC(=O)N3CCCC[C@H]3C(=O)N2)c1 [BACE_85]
18,6.34,CCCCNC(=O)[C@H](C)C[C@H](O)[C@@H]1C[C@H](C)CCCCCCNc2cc(cc(OC)n2)C(=O)N1 [BACE_152]
19,7.08,Cc1cc2cc(n1)NCCCCOCC[C@@H](C)C[C@@H]([C@H](O)CNC(C)(C)c1cc(CC(C)(C)C)on1)NC2=O [BACE_48]
20,6.27,CC(C)c1cccc(C(C)(C)NC[C@@H](O)[C@@H]2C[C@H](C)CCCCCCCNc3cccc(c3)C(=O)N2)c1 [BACE_55]
21,5.00,CC(C)c1cccc(CNC[C@@H](O)[C@@H]2C[C@H](C)CCCCCCCCc3cc(ccn3)C(=O)N2)c1 [BACE_53]
22,7.26,C[C@@H]1CCCCCCCCC(=O)N(C)[C@@H](C)C(=O)N[C@H]([C@H](O)CN[C@@H](C)c2cccc(Br)c2)C1 [BACE_22]

row,pIC50,Structure (SMILES)
1,6.77,C[C@H]1C(=O)N[C@H]([C@H](O)CNC2(c3cccc(Br)c3)CC2)Cc2cccc(c2)OCCCCCC(=O)N1C [BACE_90]
2,7.96,CC(C)c1cccc(CNC[C@@H](O)[C@@H]2C[C@H](C)CCCCCCCOc3cc(cc(N(C)S(C)(=O)=O)c3)C(=O)N2)c1 [BACE_82]
3,7.47,CC(=O)COc1cc2cc(c1)C(=O)N[C@H]([C@H](O)CNCc1cccc(C(C)C)c1)Cc1cccc(c1)OCCCCO2 [BACE_16]
4,5.25,COCc1cc2cc(c1)C(=O)N[C@H]([C@H](O)CNCc1cc(C(F)(F)F)ccc1F)C[C@H](C)CCOCCCCN2 [BACE_76]
5,4.89,COCc1cc2cc(c1)C(=O)N[C@H]([C@H](O)CN)Cc1cccc(c1)OCCCCN2 [BACE_126]
6,7.85,COCc1cc2cc(c1)C(=O)N[C@H]([C@H](O)CNCc1cc(CC(C)(C)C)on1)Cc1cccc(c1)OCCCCN2 [BACE_129]
7,6.46,CC(C)c1cccc(CNC[C@@H](O)[C@@H]2C[C@H](C)CC/C=C/CCCNc3cc(CO)cc(c3)C(=O)N2)c1 [BACE_66]
8,6.06,C[C@@H]1CCCCCCCOc2cccc(c2)C(=O)N[C@H]([C@H](O)CNCc2cncc(CC(C)(C)C)c2)C1 [BACE_78]
9,8.70,CC(C)c1ccc2c(c1)[C@@H](NC[C@@H](O)[C@@H]1Cc3cccc(c3)OCCCCCC(=O)N(C)[C@@H](C)C(=O)N1)CC(C)(C)O2 [BACE_91]
10,8.22,C[C@H](NC[C@@H](O)[C@@H]1Cc2cccc(c2)OCCCCOc2cncc(c2)C(=O)N1)c1cc(CC(C)(C)C)on1 [BACE_125]
11,8.14,C/C1=C\CCCCCCNc2cc(cc(C)n2)C(=O)N[C@H]([C@H](O)CNCc2cccc(C(C)C)c2)C1 [BACE_45]
12,7.39,CCCCNC(=O)[C@H](C)C[C@H](O)[C@@H]1C[C@H](C)CCCCC[C@H](C)CCC(=O)N(C)[C@@H](C)C(=O)N1 [BACE_148]
13,7.60,COCc1cc2cc(c1)C(=O)N[C@H]([C@H](O)CNC(C)(C)c1cc(C(C)(C)C)ccn1)Cc1cccc(c1)OCCCCN2 [BACE_124]
14,8.00,C[C@@H]1CC(=O)NCCCCOc2cccc(c2)C[C@@H]([C@H](O)CNC2(c3cccc(C(C)(C)C)c3)CCCCC2)NC1=O [BACE_93]
15,7.34,Cc1cc2cc(n1)NN(C(=O)c1ccc(F)cc1)CCCCCC[C@@H](C)C[C@@H]([C@H](O)CNCc1cccc(C(C)C)c1)NC2=O [BACE_50]
16,7.68,C[C@@H]1CCCCCCCCS(=O)(=O)C[C@@H](C)C(=O)N[C@H]([C@H](O)CN[C@@H](C)c2cc(CC(C)(C)C)on2)C1 [BACE_39]
17,7.00,COCc1cc2cc(c1)C(=O)N[C@H]([C@H](O)CNCc1cnn(CC(C)C)c1)Cc1cccc(c1)OCCCCN2 [BACE_127]
18,8.07,C[C@@H]1CCCCCCCOc2cc(cc(-c3ncco3)c2)C(=O)N[C@H]([C@H](O)CNC2(c3cc(C(C)(C)C)ccn3)CC2)C1 [BACE_81]
19,7.22,COCc1cc2cc(c1)C(=O)N[C@H]([C@H](O)CNC1(c3cccc(C(C)(C)C)c3)CC1)C[C@H](C)CCOC/C=C\CN2 [BACE_75]
20,6.32,CC(C)c1cccc(CNC[C@@H](O)[C@@H]2Cc3cccc(c3)CCCCOc3cncc(c3)C(=O)N2)c1 [BACE_137]
21,8.52,Cc1cc2cc(n1)OCCCCOc1cccc(c1)C[C@@H]([C@H](O)CN[C@H]1CC(C)(C)Oc3ccc(C(C)C)cc31)NC2=O [BACE_111]
22,8.24,C[C@@H]1CCCCCCCCC(=O)N(C)[C@@H](C)C(=O)N[C@H]([C@H](O)CNC(C)(C)c2cc(CC(C)(C)C)on2)C1 [BACE_27]
